Measurements reported in patent US10966964B2, “Method for preparing pharmaceutical composition comprising pyrrolo-fused six-membered heterocyclic compound” (Jiangsu Hengrui Medicine Co., Ltd., priority 2016, dated 2021).

Test: Water solubility and moisture stability of the active ingredient (statement)
Assay type: physicochemical
Conditions: compound of formula (I) or a pharmaceutically acceptable salt thereof
Source text: Since the compound of formula (I) or a pharmaceutically acceptable salt thereof has poor water solubility, and is unstable in the presence of moisture, water cannot be used as a solvent for wet granulation. When the compound of formula (I) or a pharmaceutically acceptable salt thereof is formulated into a pharmaceutical composition by using a conventional preparation method, the resulting composition is difficult to dissolve rapidly and keep its quality stable. There is a need to find a suitable method to obtain a stable composition with a rapid dissolution.

- stability in the presence of moisture (in words): unstable
- water solubility (in words): poor
Compound: CCN(CC)CCN1CCc2[nH]c(/C=C3\C(=O)Nc4ccc(F)cc43)c(C)c2C1=O.O=C(O)C[C@H](O)C(=O)O [compound of formula (I), 5-(2-diethylamino-ethyl)-2-(5-fluoro-2-oxo-1,2-dihydro-indol-3-ylidene-methyl)-3-methyl-1,5,6,7-tetrahydro-pyrrolo[3,2-c]pyridin-4-one]
